Data on one compound can be found in publication PMC7313537 (PLoS ONE, 2020).

In general, IC50 refers to the midpoint of a concentration-inhibition curve. A lower IC50 goes with greater potency. Usually inhibition stands for the relative decrease from the control value, in per cent. What is called GI50 is the concentration giving 50% growth inhibition.

For one data set, the target named is PLK3 (Homo sapiens, UniProt Q9H4B4). In words: Enzyme selectivity panel. The data set is classed as biochemical. The following applies: 1 mM ATP.
Sequence of PLK3 (Q9H4B4 whole entry, species assumed): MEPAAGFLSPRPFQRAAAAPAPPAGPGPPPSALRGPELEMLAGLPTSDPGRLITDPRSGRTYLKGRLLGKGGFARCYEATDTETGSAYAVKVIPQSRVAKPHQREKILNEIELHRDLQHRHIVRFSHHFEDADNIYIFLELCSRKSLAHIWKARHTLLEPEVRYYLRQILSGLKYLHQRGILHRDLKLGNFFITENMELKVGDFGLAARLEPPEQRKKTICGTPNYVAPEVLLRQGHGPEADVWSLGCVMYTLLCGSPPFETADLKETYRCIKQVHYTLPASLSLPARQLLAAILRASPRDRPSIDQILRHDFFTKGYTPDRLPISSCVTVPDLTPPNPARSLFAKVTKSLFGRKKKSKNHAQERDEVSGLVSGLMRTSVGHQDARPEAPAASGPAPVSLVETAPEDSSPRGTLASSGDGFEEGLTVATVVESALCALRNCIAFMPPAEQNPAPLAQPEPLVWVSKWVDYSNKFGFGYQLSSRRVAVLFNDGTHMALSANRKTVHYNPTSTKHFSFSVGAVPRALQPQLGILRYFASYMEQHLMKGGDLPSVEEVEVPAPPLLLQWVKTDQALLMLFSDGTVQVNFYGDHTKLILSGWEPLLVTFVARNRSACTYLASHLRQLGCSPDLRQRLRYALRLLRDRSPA
The target of another data set is T1, SGK2 (Homo sapiens, UniProt Q9HBY8).
T1 construct: purchased In-house HTRF panel (56 kinases) and PerkinElmer (161-kinase panel)
The experiment in a line: Enzyme selectivity panel. The data set is classed as biochemical. Particulars: 1 mM ATP.

The target of the next data set is T2, CAMK4 (Homo sapiens, UniProt Q16566).
T2 construct: purchased In-house HTRF panel (56 kinases) and PerkinElmer (161-kinase panel)
In words: Broader kinase panel (PerkinElmer). Type of data set: biochemical. The following applies: 100 nM; read-out: Average Percent Inhibition. From the text:
(§1) […]. […] […].

The next data set addresses CDK2 (Homo sapiens, UniProt P24941). The experiment in a line: Broader kinase panel (PerkinElmer). The data set is classed as biochemical. Particulars: 100 nM; read-out: Average Percent Inhibition.
Description: as §1

The next data set has as its target T3, CK1d (Homo sapiens, UniProt P48730).
T3 construct: purchased In-house HTRF panel (56 kinases) and PerkinElmer (161-kinase panel)
In words: Broader kinase panel (PerkinElmer). The data set is classed as biochemical. The following applies: 100 nM; read-out: Average Percent Inhibition.
Description: as §1

The next data set concerns the target T4, Hck (Homo sapiens, UniProt P08631).
T4 construct: purchased In-house HTRF panel (56 kinases) and PerkinElmer (161-kinase panel)
The experiment in a line: Broader kinase panel (PerkinElmer). The data set is classed as biochemical. The following applies: 100 nM; read-out: Average Percent Inhibition.
Description: as §1

In another data set the target is T5, MARK4 (Homo sapiens, UniProt Q96L34).
T5 construct: purchased In-house HTRF panel (56 kinases) and PerkinElmer (161-kinase panel)
T5 sequence (Q96L34 whole entry): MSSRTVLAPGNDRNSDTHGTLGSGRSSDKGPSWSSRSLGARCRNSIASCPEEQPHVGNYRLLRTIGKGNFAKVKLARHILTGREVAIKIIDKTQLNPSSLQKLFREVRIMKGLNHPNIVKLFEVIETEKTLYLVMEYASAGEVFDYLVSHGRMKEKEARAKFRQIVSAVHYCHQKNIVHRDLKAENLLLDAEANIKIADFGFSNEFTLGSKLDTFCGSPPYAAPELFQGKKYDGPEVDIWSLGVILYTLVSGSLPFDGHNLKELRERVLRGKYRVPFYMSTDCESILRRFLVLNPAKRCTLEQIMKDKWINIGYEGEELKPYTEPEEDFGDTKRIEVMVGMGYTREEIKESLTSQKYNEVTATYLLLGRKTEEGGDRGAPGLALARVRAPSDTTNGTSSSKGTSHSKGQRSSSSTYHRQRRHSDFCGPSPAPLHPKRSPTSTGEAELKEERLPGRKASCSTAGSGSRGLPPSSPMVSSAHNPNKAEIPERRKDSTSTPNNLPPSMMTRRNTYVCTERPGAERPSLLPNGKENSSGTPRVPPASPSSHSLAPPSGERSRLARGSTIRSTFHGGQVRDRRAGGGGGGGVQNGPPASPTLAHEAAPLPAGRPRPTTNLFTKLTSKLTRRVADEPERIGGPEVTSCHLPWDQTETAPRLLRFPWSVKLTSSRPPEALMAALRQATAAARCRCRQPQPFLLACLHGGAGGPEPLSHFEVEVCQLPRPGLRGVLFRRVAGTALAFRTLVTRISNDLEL
In words: Broader kinase panel (PerkinElmer). Type of data set: biochemical. The following applies: 100 nM; read-out: Average Percent Inhibition.
Description: as §1

The target in another data set is T6, MET M1250T (Homo sapiens, UniProt P08581, M1250T).
T6 construct: purchased In-house HTRF panel (56 kinases) and PerkinElmer (161-kinase panel)
T6 sequence (P08581 25-1390 M1250T): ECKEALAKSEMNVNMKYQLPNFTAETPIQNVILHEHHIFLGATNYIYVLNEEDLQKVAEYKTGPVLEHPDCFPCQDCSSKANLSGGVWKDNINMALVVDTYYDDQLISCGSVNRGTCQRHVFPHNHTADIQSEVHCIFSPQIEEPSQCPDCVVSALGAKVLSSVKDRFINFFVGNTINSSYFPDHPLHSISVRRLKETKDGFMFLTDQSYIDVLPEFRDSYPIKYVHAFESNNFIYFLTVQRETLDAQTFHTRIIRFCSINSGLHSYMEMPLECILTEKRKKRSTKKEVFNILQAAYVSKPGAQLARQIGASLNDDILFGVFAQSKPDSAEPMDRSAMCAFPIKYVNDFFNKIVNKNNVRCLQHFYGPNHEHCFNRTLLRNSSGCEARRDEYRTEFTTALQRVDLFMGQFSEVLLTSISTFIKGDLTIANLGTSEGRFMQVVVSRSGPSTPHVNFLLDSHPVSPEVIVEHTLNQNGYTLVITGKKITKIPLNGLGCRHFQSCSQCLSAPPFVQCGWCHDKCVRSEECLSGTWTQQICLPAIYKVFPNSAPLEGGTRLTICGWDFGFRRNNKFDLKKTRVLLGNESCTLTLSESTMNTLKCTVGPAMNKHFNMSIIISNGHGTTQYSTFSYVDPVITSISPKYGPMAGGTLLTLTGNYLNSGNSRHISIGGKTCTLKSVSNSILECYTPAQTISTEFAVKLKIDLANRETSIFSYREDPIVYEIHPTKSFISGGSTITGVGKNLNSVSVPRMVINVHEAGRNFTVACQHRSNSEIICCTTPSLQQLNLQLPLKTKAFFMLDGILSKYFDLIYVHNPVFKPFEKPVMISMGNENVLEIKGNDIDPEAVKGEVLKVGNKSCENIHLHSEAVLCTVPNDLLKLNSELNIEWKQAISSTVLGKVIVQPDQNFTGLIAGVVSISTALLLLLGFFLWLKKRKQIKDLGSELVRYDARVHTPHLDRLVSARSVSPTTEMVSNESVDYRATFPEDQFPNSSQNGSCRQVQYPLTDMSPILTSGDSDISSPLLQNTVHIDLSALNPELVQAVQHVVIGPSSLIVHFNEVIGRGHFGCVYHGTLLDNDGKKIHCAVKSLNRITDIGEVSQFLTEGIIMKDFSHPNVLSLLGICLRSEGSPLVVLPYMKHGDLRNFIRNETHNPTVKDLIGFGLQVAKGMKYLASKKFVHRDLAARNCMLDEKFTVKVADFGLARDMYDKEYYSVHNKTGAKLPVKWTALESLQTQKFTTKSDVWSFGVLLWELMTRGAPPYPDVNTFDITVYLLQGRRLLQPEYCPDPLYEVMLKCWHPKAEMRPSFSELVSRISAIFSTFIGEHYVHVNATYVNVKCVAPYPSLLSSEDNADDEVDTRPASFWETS
The experiment in a line: Broader kinase panel (PerkinElmer). The data set is classed as biochemical. The following applies: 100 nM; read-out: Average Percent Inhibition.
Description: as §1

A further data set concerns the target T7, MSK2 (Homo sapiens, UniProt O75676).
T7 construct: purchased In-house HTRF panel (56 kinases) and PerkinElmer (161-kinase panel)
The experiment in a line: Broader kinase panel (PerkinElmer). The data set is classed as biochemical. Particulars: 100 nM; read-out: Average Percent Inhibition.
Description: as §1

The target of another data set is T8, PIM3 (Homo sapiens, UniProt Q86V86).
T8 construct: purchased In-house HTRF panel (56 kinases) and PerkinElmer (161-kinase panel)
In words: Broader kinase panel (PerkinElmer). Type of data set: biochemical. The following applies: 100 nM; read-out: Average Percent Inhibition.
Description: as §1

In the next data set the target is T9, PKC-beta1 (Homo sapiens, UniProt P05771).
T9 construct: purchased In-house HTRF panel (56 kinases) and PerkinElmer (161-kinase panel)
T9 sequence (P05771 whole entry): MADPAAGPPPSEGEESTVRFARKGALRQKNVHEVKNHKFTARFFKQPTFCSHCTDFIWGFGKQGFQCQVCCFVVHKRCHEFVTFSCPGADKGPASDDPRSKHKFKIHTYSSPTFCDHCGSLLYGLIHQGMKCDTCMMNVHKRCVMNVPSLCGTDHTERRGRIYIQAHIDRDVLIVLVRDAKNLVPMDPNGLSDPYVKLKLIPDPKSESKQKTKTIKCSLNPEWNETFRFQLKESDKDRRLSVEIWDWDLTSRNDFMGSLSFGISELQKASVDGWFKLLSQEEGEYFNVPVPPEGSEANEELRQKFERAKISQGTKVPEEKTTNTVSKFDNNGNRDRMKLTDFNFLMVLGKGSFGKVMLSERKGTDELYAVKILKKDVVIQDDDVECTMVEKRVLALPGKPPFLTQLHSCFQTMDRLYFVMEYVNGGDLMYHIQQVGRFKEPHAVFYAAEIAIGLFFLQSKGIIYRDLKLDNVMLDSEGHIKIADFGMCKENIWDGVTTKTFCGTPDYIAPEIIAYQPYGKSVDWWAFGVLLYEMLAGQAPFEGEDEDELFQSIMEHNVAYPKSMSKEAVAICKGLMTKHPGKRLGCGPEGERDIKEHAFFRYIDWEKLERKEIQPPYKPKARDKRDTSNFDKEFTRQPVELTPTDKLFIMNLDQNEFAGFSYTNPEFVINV
In words: Broader kinase panel (PerkinElmer). Particulars: 100 nM; read-out: Average Percent Inhibition. The data set is classed as biochemical.
Description: as §1

For a further data set, the target named is T10, Ret (V804L) (Homo sapiens, UniProt P07949, V804L).
T10 construct: purchased In-house HTRF panel (56 kinases) and PerkinElmer (161-kinase panel)
In words: Broader kinase panel (PerkinElmer). Particulars: 100 nM; read-out: Average Percent Inhibition. The data set is classed as biochemical.
Description: as §1

Data set [1] deals with AN3CA (endometrial cancer). In words: Cell viability assay (CellTiter-Glo). Type of data set: cell-based. The following applies: Homo sapiens, AN3-CA; FGFR2 N310R/N549K mutations; 72 hours; read-out: Mean GI50 ± S.D. A general note: In ATP-based viability assays light output follows the ATP content of the culture.
In a further data set the test system is HEK293. The experiment in a line: Cell viability assay (CellTiter-Glo). The data set is classed as cell-based. Particulars: Homo sapiens, Embyronic kidney, lacking FGFR alterations.
The nature of data set [2]: Plasma exposure after single oral dose in KATO III tumor-bearing mice. Type of data set: in vivo, mouse. Particulars: single oral dose of 0.1, 1, and 10 mg/kg. How it is done:
(A) Pharmacokinetic profile of INCB054828 in the mouse. […] (B) Pharmacokinetic-pharmacodynamic analyses in KATO III tumors. […] Plasma was subjected to analytical analysis and phospho-FGFR2 in tumor homogenate was determined by ELISA.

The test system of data set [3] is RT-112 (FGFR3-TACC3 fusion positive) bladder carcinoma model. In words: RT-112 xenograft efficacy. The data set is classed as in vivo, Rowett Nude rats. Particulars: oral, 14 days. As for the experimental part:
The inoculation of 0.5 mL was performed subcutaneously on the flank. The treatment of tumor bearing rats was started 8 days after tumor inoculation.

T7 sequence (O75676 whole entry): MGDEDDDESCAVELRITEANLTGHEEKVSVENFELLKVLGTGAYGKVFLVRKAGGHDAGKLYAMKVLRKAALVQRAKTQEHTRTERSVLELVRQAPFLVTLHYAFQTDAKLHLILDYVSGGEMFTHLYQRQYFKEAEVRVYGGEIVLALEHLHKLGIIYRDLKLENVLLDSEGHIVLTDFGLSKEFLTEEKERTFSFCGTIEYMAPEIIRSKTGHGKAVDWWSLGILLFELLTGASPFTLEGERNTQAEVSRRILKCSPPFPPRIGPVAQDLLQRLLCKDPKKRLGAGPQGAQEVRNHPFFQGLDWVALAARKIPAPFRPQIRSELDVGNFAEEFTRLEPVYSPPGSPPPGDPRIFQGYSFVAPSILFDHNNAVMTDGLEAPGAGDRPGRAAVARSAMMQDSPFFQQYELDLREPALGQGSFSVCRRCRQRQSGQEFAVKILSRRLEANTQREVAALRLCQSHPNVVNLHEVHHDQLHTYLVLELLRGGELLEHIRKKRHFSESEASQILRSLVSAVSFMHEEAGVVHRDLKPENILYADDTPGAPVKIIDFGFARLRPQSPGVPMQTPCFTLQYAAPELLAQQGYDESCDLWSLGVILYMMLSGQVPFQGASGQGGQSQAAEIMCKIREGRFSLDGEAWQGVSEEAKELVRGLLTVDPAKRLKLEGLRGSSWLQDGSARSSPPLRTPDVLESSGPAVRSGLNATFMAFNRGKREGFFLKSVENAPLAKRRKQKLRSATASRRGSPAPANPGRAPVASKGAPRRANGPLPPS
T4 sequence (P08631 whole entry): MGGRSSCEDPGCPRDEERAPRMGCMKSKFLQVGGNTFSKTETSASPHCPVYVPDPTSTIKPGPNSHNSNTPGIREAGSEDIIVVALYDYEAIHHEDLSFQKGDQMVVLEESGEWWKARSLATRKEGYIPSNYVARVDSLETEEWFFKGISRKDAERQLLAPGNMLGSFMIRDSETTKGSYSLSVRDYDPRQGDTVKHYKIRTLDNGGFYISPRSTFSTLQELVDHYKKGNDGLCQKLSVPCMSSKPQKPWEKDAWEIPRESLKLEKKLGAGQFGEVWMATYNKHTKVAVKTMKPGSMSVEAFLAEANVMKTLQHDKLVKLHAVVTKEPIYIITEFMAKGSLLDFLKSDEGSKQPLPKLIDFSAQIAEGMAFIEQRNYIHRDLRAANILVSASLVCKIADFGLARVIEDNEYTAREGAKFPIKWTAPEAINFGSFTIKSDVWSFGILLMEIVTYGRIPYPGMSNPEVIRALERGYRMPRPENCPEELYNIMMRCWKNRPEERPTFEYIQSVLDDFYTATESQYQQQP
Description for PLK3: (§2) The kinase assays were carried out at room temperature in HEPES 50 mM, pH 7.0, NaN3 0.02%, BSA 0.01%, Orthovanadate 0.1 mM, DTT 1 mM, MgCl2 10 mM in a final volume of 10 µL. Test compounds were transferred to the plate wells by ECHO liquid handler (Labcyte, San Jose, CA) with 0.5% dimethyl sulfoxide (DMSO) in the final assay. Peptide/kinase mixtures were diluted in the appropriate enzymatic buffer and 5µL of the mixture was added to a 384-well small volume black plate. Reactions were initiated by the addition of 5 µL ATP in reaction buffer, the final reaction mixture consisted of 500 nM peptide substrate, 1 mM ATP, and appropriate amount of specific kinase. […] The plates were then sealed and centrifuged at 1800 rpm for 2 minutes. […] Half maximal inhibitory concentration (IC50) determination was performed by fitting the curve of percent control activity versus the log of the compound concentration using the GraphPad Prism 6.0 software.
Description for SGK2: as §2

As for `CCN1C(=O)N(c2c(F)c(OC)cc(OC)c2F)Cc2cnc3[nH]c(CN4CCOCC4)cc3c21` [INCB054828, pemigatinib], the IC50 against PLK3 and against SGK2 was > 10 µM each time. The inhibition at 0.1 µM at CAMK4 is -1%; at CDK2 it was -2%; on CK1d, -1%; at Hck, -3%; on MARK4, -4%; at MET M1250T, 1%. Besides, the inhibition at 0.1 µM was -7% at MSK2, -4% at PIM3, 7% on PKC-beta1 and 0% on Ret (V804L). For the same compound, the concentration for 50% growth inhibition (GI50) in [1] was 0.048 ± 0.028 µM; in the data set on HEK293 it was > 20 µM. In addition, the “plasma exposures, dose dependence” value in data set [2] is “dose linear”. Also, the tumor growth inhibition result in [3] (0.3 mg/kg once daily) and in [3] (1 mg/kg once daily) was “significant tumor growth inhibition” throughout.
